According to EP4741394A1, “CRYSTAL FORM OF [1,2,4]TRIAZOLO[4,3-B]PYRIDAZINE COMPOUND, AND PREPARATION METHOD THEREFOR AND USE THEREOF” (Beijing Pearl Biotechnology Limited Liability Company, priority 2023, dated 2025):

How the values were obtained:
Type in all cases: physicochemical
[1] = Thermal and moisture stability of crystal forms (HPLC and XRPD after storage in a stability test chamber); conditions: for degradation: under the test conditions of Table 1; for crystal form change (overlay of XRPD forms): under the test conditions, FIGS. 15 and 16
Description: (§1) The crystal form of the samples was analyzed using a Bruker D8 ADVANCE or Bruker D8 Focus X-ray powder diffractometer. The samples were scanned with the 2θ scanning angle of 3° to 42°, the scanning step of 0.02°, and the scanning time of 0.05 s or 0.1 s or 0.2 s per step. The voltage and current for fluorescent tubes were 40 kV and 40 mA, respectively. During sample preparation, an appropriate amount of samples were placed on a sample tray and flattened with a glass sheet or other tools to ensure a smooth and flat surface.
Solubility and stability tests were carried out using Agilient 1260 HPLC under the following conditions: column: ZORBAX Eclipse Plus Cl8 4.6* 100 mm 3.5-Micron; flow rate: 1 mL/min; column temperature: 35 °C; injection volume: 10 µL; mobile phases: mobile phase A: 0.02 mol/L potassium dihydrogen phosphate, and mobile phase B: ACN; running time: 40 min; detector: UV at 210 nm; diluent: ACN; and injection concentration: 0.2 mg/mL.
A certain amount of samples of the crystal forms A (prepared according to the preparation method 1 of Example 1) and B (prepared according to the method of Example 2) of the compound of formula (I) were placed into a stability test chamber, and taken out for HPLC and XRPD testing after a certain period of time.
Test conditions were as follows: under open conditions at 25 °C with 60% RH (25 °C/60% RH) or at 40 °C with 75% RH (40 °C/75% RH), HPLC and XRPD was characterized after one week, two weeks, 1 month and 2 months respectively; and HPLC and XRPD were characterized under closed conditions at 80 °C for one day and under closed conditions with lighting for 10 days, respectively. Table 1: Results of Stability of Crystal Forms A and B

[2] = Stability of crystal forms in aqueous medium at 37 °C (XRPD of solids from 5 mg/mL suspension); conditions: for XRPD: 37 °C; for crystal form transformation: 24 hours
Description: as §1
Table 2: Results of Stability of Crystal Forms A and B in Aqueous Medium at 37 °C

[3] = Solid dispersion by hot-melt extrusion with Povidone K30: content of related substance D1 and of active ingredient; conditions: for Content of related substance D1 in starting material: before hot-melt extrusion, Not detected: detected content < 0.0045%; for Content of active pharmaceutical ingredient in sample / Content of related substance D1 in sample: solid dispersion, Povidone K30 1:3, hot-melt extrusion up to 200 °C
Description: Under the same hot-melt extrusion conditions, the contents of related substance D1 in the solid dispersions prepared from the crystal forms A (prepared according to the preparation method 1 of Example 1) and B (prepared according to the preparation method of Example 2) were investigated, respectively. The structure of the related substance D1 is represented by formula (II). [drawing 4]
Preparation of solid dispersion by hot-melt extrusion: the active pharmaceutical ingredient of crystal form A (prepared according to the preparation method 1 of Example 1) or B (prepared according to the method of Example 2) and Povidone K30 were weighed respectively and then evenly mixed at a ratio of 1:3; after the temperature of each temperature zone for hot-melt […] reached 130 °C, 150 °C, 180 °C, 195 °C, 200 °C, 200 °C, 200 °C, and 200 °C and balanced for 15 min, the mixture was added to the hopper of an extruder; and the resulting solids were collected and left to cool at room temperature, and then tested for the content of the related substance D1, respectively. Table 3: Results of Prepared Samples of Crystal Forms A and B
Not detected: the detected content of related substance D1 was < 0.0045%.

[4] = Hygroscopic weight gain test
Description: On Days 0, 20 and 25, the samples were set out respectively, with the temperature and humidity conditions controlled to 25 ± 2 °C/75 ± 5% RH and 25 ± 2 °C/90 ± 5% RH. All samples were sampled and weighed on Day 30 to calculate the hygroscopic weight gain (%).

[5] = Impact of drying conditions on crystal form stability (XRPD); conditions: wet samples dried at 40 °C or 60 °C under vacuum, or under nitrogen at room temperature or 40 °C; 0 h to 48 h
Description: as §1

[6] = FeSSIF, 24 h (first FeSSIF line)
[7] = FeSSIF, 24 h (second FeSSIF line)

## Cn1cc2cc(C(F)(F)c3nnc4ccc(-c5cnn(C6CC6)c5)nn34)c(F)cc2n1 [Crystal form A]
[1]; 25 °C/60% RH, open, 1 month
  Degradation (%): 0%
  Purity (%): 99.98%
  XRPD: Unchanged
[1]; 25 °C/60% RH, open, 1 week
  Degradation (%): 0%
  Purity (%): 99.98%
  XRPD: Unchanged
[1]; 25 °C/60% RH, open, 2 months
  Degradation (%): 0%
  Purity (%): 99.98%
  XRPD: Unchanged
[1]; 25 °C/60% RH, open, 2 weeks
  Degradation (%): 0%
  Purity (%): 99.98%
  XRPD: Unchanged
[1]; 40 °C/75% RH, open, 1 month
  Degradation (%): 0%
  Purity (%): 99.98%
  XRPD: Unchanged
[1]; 40 °C/75% RH, open, 1 week
  Degradation (%): 0.01%
  Purity (%): 99.97%
  XRPD: Unchanged
[1]; 40 °C/75% RH, open, 2 months
  Degradation (%): 0.01%
  Purity (%): 99.97%
  XRPD: Unchanged
[1]; 40 °C/75% RH, open, 2 weeks
  Degradation (%): 0%
  Purity (%): 99.98%
  XRPD: Unchanged
[1]; 80 °C, closed, 1 d
  Degradation (%): 0%
  Purity (%): 99.98%
  XRPD: Unchanged
[1]; Lighting control, 10 d
  Degradation (%): 0%
  Purity (%): 99.98%
  XRPD: Unchanged
[1]; Lighting, closed, 10 d
  Degradation (%): 0%
  Purity (%): 99.98%
  XRPD: Unchanged
[1]; Start
  Purity (%): 99.98%
[1]
  degradation: almost no degradation
  crystal form change (overlay of XRPD forms): have not changed
[2]; FaSSIF, 24 h
  XRPD: Unchanged
[2]; [6]
  XRPD: Unchanged
[2]; [7]
  XRPD: Unchanged
[2]; Water, 24 h
  XRPD: Crystal form B
[2]; buffers of different pHs and water
  crystal form transformation: transformed to the crystal form B
[2]; pH 1.2 buffer, 24 h
  XRPD: Crystal form B
[2]; pH 3.0 buffer, 24 h
  XRPD: Crystal form B
[2]; pH 4.5 buffer, 24 h
  XRPD: Crystal form B
[2]; pH 6.8 buffer, 24 h
  XRPD: Crystal form B
[2]; pH 7.4 buffer, 24 h
  XRPD: Crystal form B
[2]; simulated biological media
  crystal form transformation: without crystal form transformation
[3]
  Content of related substance D1 in starting material: Not detected
  Content of active pharmaceutical ingredient in sample: 101.6%
  Content of related substance D1 in sample: 0.08%

## Cn1cc2cc(C(F)(F)c3nnc4ccc(-c5cnn(C6CC6)c5)nn34)c(F)cc2n1 [Crystal form B]
[1]; 25 °C/60% RH, open, 1 month
  Degradation (%): 0%
  Purity (%): 99.98%
  XRPD: Unchanged
[1]; 25 °C/60% RH, open, 1 week
  Degradation (%): 0%
  Purity (%): 99.98%
  XRPD: Unchanged
[1]; 25 °C/60% RH, open, 2 months
  Degradation (%): 0.01%
  Purity (%): 99.97%
  XRPD: Unchanged
[1]; 25 °C/60% RH, open, 2 weeks
  Degradation (%): 0%
  Purity (%): 99.98%
  XRPD: Unchanged
[1]; 40 °C/75% RH, open, 1 month
  Degradation (%): 0%
  Purity (%): 99.98%
  XRPD: Unchanged
[1]; 40 °C/75% RH, open, 1 week
  Degradation (%): 0.01%
  Purity (%): 99.97%
  XRPD: Unchanged
[1]; 40 °C/75% RH, open, 2 months
  Degradation (%): 0.02%
  Purity (%): 99.96%
  XRPD: Unchanged
[1]; 40 °C/75% RH, open, 2 weeks
  Degradation (%): -0.01%
  Purity (%): 99.99%
  XRPD: Unchanged
[1]; 80 °C, closed, 1 d
  Degradation (%): 0.01%
  Purity (%): 99.97%
  XRPD: Unchanged
[1]; Lighting control, 10 d
  Degradation (%): 0%
  Purity (%): 99.98%
  XRPD: Unchanged
[1]; Lighting, closed, 10 d
  Degradation (%): 0%
  Purity (%): 99.98%
  XRPD: Unchanged
[1]; Start
  Purity (%): 99.98%
[1]
  degradation: almost no degradation
  crystal form change (overlay of XRPD forms): have not changed
[2]; FaSSIF, 24 h
  XRPD: Unchanged
[2]; [6]
  XRPD: Unchanged
[2]; [7]
  XRPD: Unchanged
[2]; Water, 24 h
  XRPD: Unchanged
[2]; all media
  crystal form change: no change
[2]; pH 1.2 buffer, 24 h
  XRPD: Unchanged
[2]; pH 3.0 buffer, 24 h
  XRPD: Unchanged
[2]; pH 4.5 buffer, 24 h
  XRPD: Unchanged
[2]; pH 6.8 buffer, 24 h
  XRPD: Unchanged
[2]; pH 7.4 buffer, 24 h
  XRPD: Unchanged
[3]
  Content of related substance D1 in starting material: Not detected
  Content of active pharmaceutical ingredient in sample: 101.8%
  Content of related substance D1 in sample: 0.05%
[4]; 25 + 2°C/90 + 5% RH, 5 days
  Hygroscopic weight gain (%): 1%
[4]; 25 + 2°C/90 + 5% RH, 10 days
  Hygroscopic weight gain (%): 1%
[4]; 25 + 2°C/90 + 5% RH, 30 days
  Hygroscopic weight gain (%): 1%
[4]; 25 ± 2°C/75 + 5% RH, 5 days
  Hygroscopic weight gain (%): 1%
[4]; 25 ± 2°C/75 + 5% RH, 10 days
  Hygroscopic weight gain (%): 1%
[4]; 25 ± 2°C/75 + 5% RH, 30 days
  Hygroscopic weight gain (%): 1%
[4]; high humidity conditions for 5 days, 10 days and 30 days (text summary; less than 2%, slight hygroscopicity)
  hygroscopic weight gain: approximately 1%
[5]
  crystal form during drying (XRPD): no other crystal forms appear during drying
